Test: in vitro release of trypan blue from alginate hydrogel disks with or without compression
Assay type: physicochemical
Protocol: In a first in vitro experiment, alginate hydrogels were prepared comprising 10 g PROTANAL, 4 mg trypan blue (Sigma Chemical) as a model drug molecule, and 63 mg CaSO4 (Sigma Chemical). The hydrogels were cut into disks of approximately 12.7 mm diameter and approximately 2 mm thick, and thereafter swollen overnight in the commercially available Dulbecco's Modified Eagle's Medium (DMEM). The hydrogel disks so prepared were next placed in custom-made sample holders of 13 mm diameter and 30 mm length. Porous stainless steel supports were provided on both the top and bottom of each hydrogel disk to permit release of the trypan blue drug during compression of the hydrogels.
The results of this first, in vitro experiment are shown in FIG. 1, which figure comprises an upper chart graphically depicting the mechanical stimulation cycle of compression/relaxation relative to a lower chart graphically depicting the release of the trypan blue drug from the mechanically stimulated hydrogels (line A). The control, non-compressed hydrogels are also depicted in this lower chart (line B).

## Cc1cc(-c2ccc(/N=N/c3c(S(=O)(=O)O)cc4cc(S(=O)(=O)O)cc(N)c4c3O)c(C)c2)ccc1/N=N/c1c(S(=O)(=O)O)cc2cc(S(=O)(=O)O)cc(N)c2c1O [trypan blue]
Compressed (A) versus non-compressed (B) hydrogels
  effect of compression on trypan blue release: did not significantly alter
Compressed hydrogels (line A), three compression/relaxation cycles, 10% maximum compressive strain, DMEM-swollen
  release of the trypan blue drug from the compressed hydrogels: increased steadily
